Results on four molecules are retold here after article PMC11473290, “1,3,4-oxadiazoles as inhibitors of the atypical member of the BET family bromodomain factor 3 from Trypanosoma cruzi (TcBDF3)” (Frontiers in Microbiology, 2024).

A word on the IC50: it is the concentration that inhibits the measured activity by half. A word on the CC50: it is the concentration that lowers cell viability or growth by half. What is called Kd is a measure of binding affinity in units of concentration. Broadly, the melting point is the temperature, or range, at which the solid turns liquid.

Like-named read-outs stand apart in the source and are kept apart here.

Data set [1] concerns T. cruzi Dm28c amastigotes. More on the design: method as in García et al., 2018. Conditions: already published, ref García et al., 2018, cited from earlier work.
The next data set deals with Vero cells. More on the design: method as in García et al., 2018. The following applies: MTT; already published; ref García et al., 2018; cited from earlier work.
Data set [2] concerns T. cruzi Dm28c trypomastigotes. More on the design: method as in García et al., 2018. Conditions: already published, ref García et al., 2018, cited from earlier work.
For data set [3], the system named is TcBD2 (recombinant bromodomain of TcBDF2). The experiment in a line: Tryptophan intrinsic fluorescence quenching assay. It counts as binding, Trypanosoma cruzi. Conditions: 10-μM protein; 5, 10 and 20 μM compound; cut-off 0.9 normalized units. As to the method:
(§1) 96-well black microplates with 10-μM recombinant proteins (TcBDF3, TcBDF3m, TcBD3, and TcBD2) and three concentrations of each compound were used (5, 10, and 20 μM). In this assay, A1B4 and iBET-151 (positive control) were used. All determinations were made from the top with an excitation wavelength of 275 and a 340/30 nm emission filter, 50 reads per well, and a PMT-sensitivity setting of 180 in a Synergy HT multidetection microplate reader equipped with time-resolved capable optics. Each condition was tested in triplicates, and normalized maximum fluorescence intensityvs. Concentration was plotted using GraphPad Prism 9.0. The relative fluorescence intensity obtained to the condition without the inhibitor was normalized.

The subject of data set [4] is TcBDF3m (Y123A and L130A). The experiment in a line: Tryptophan intrinsic fluorescence quenching assay. The data set is classed as binding, Trypanosoma cruzi. Conditions: 10-μM protein; 5, 10 and 20 μM compound; cut-off 0.9 normalized units. As to the method:
as §1

The subject of data set [5] is TcBD3 (bromodomain of TcBDF3, amino acids 1-151). As to the kind of experiment: Tryptophan intrinsic fluorescence quenching assay. The data set is classed as binding, Trypanosoma cruzi. The following applies: 10-μM protein; 5, 10 and 20 μM compound; cut-off 0.9 normalized units. As to the method:
as §1

Data set [6] deals with T. cruzi Dm28c epimastigotes. More on the design: method as in García et al., 2018. The following applies: already published, ref García et al., 2018, cited from earlier work.
In data set [7] the target is T1, TcBDF3 (Trypanosoma cruzi, UniProt Q4DXV1). The experiment in a line: Fluorescence polarization (FP) assay, displacement of BSP-AF488 probe. It counts as binding. Conditions: 0.5 μM BSP-AF488, 100-μM TcBDF3. The procedure:
FP measurement was performed on a Cary Eclipse spectrophotometer equipped with a polarizer at an excitation wavelength of 488 nm and an emission wavelength of […] in a 3-ml fluorescence cuvette. The essay was set at a final volume of 2 mL, 0.5 μM of BSP-AF488, 100-μM TcBDF3, phosphate pH = 8, glycerol 1%, and DMSO 0.5%. The FP values were plotted against the log of the compound concentrations in a non-linear regression model in GraphPad Prism 9.0 as previously described ([Zhang et al., 2002]). In this assay, A1B4, A1B4c, and A5B4c were used. Briefly, free and bound probes (BSP-AF488 in the presence of TcBDF3) were included in each replica. Since the intensity of the probe remains similar for all samples, the fraction of the probe bound to TcBDF3 is correlated to the mP value. Thus, the percentage of inhibition can be derived from the equation % inhibition =100[1 − (mP − mPf)/(mPb − mPf)], in which mPf is the free probe control and mPb is the bound probe control. Based on the percentage of inhibition, the inhibitory concentration (IC50), or the inhibitor concentration at which 50% of the bound probe is displaced, is obtained by fitting the inhibition data.
A general note: In fluorescence polarisation assays a small probe gives low polarisation when free and higher when bound to something large.

For data set [8], the target named is T1, TcBDF3. Conditions: full-length TcBDF3; previously published; ref García et al., 2018; read-out: Kd ± SD DSF; cited from earlier work.
For data set [9], the system named is T. cruzi Dm28c epimastigotes. The experiment in a line: Beta-galactosidase assay, epimastigotes. Conditions: for SI (E), CC50/IC50 epimastigotes: CC50 Vero cells / IC50; for IC50: Dm28c strain expressing β-galactosidase, read-out: IC50 ± SD Epimastigotes. The data set is classed as cell-based, Trypanosoma cruzi. The procedure:
(§2) T. cruzi Dm28c that expresses the E. coli LacZ gene epimastigotes, trypomastigotes, and amastigotes were cultured and obtained as previously described ([Buckner et al., 1996]; [Alonso et al., 2021]). […] The controls included for the amastigotes (intracellular stage) were (a) uninfected cells and (b) infected with 1 μg/mL benznidazole (BZ) (positive control) and 1% DMSO to evaluate the toxicity of the solvent. For epimastigotes and trypomastigotes, the controls used were: 1-μg/ml benznidazole (BZ) (positive control) and 1% DMSO to evaluate solvent toxicity. Results obtained with this assay were verified by manually counting the parasites. The results were expressed as the percentage of inhibition of T. cruzi growth in compound-treated infected cells compared to untreated infected cells for amastigotes. For epimastigotes and trypomastigotes, treated and untreated cultured parasites were compared. Quadruplicates were run in the same microplate and repeated in three experiments. Half-maximal IC50 values were calculated using non-linear regression on GraphPad Prism 9.0, as previously described ([Alonso et al., 2021]).

The nature of data set [10]: MTT assay, cell viability. The data set is classed as cell-based. The following applies: African green monkey, Vero cells. The procedure: The 3-(4,5-dimethylthiazol-2-yl)-2,5-diphenyltetrazolium bromide (MTT) reduction assay determined cell viability after treatment as previously described ([García et al., 2018]). Optical density (OD) was spectrophotometrically quantified (λ = 540 nm) using a Synergy HT multidetection microplate reader. DMSO was used as blank, and each treatment was performed in triplicates. The 50% cytotoxic concentration (CC50) values were calculated by non-linear regression on GraphPad Prism 9.0, and the selectivity indexes (SI) were determined as the ratio CC50/IC50 in all three life cycle stages.
For orientation: Tetrazolium dyes change colour on reduction, which living cells bring about.

Data set [11] concerns the target T1, TcBDF3. The experiment in a line: Thermal shift assay (DSF), dissociation constants. The following applies: full-length TcBDF3; SD from three independent experiments. The data set is classed as binding. As to the method:
The proteins were buffered in 10-mM HEPES, pH 7.5, and 500 mM NaCl and assayed in a 48-well plate at a final concentration of 2 μM in a volume of 20 μL. Compounds were added at a final concentration between 1 and 200 μM to calculate dissociation constants. In this assay, A1B4, A1B4c, A5B4 and A5B4c were used. SYPRO Orange (Invitrogen) was added as a fluorescence probe at a dilution of 1:1000. The excitation and emission filters for the SYPRO Orange dye were set at 465 and 590 nm, respectively. The temperature was increased with steps of 2°C/min from 25°C to 96°C, and fluorescence readings were taken at each interval in a CFX Opus 96 Real-Time System (Biorad) and analyzed using Maestro Software (Biorad). The melting curves and average melting temperature for each condition were obtained and plotted in temperature vs. concentration graphs in GraphPad Prism 9.0. Plots were fitted using the differential fluorescence scanning (DSF) single binding site equation to obtain the dissociation constants (Kd) in GraphPad Prism 9.0.

Data set [12] concerns T. cruzi Dm28c trypomastigotes. As to the kind of experiment: Beta-galactosidase assay, trypomastigotes. It counts as cell-based, Trypanosoma cruzi. The following applies: for SI (T), CC50/IC50 trypomastigotes: CC50 Vero cells / IC50. The procedure:
as §2

Data set [13] has as its system T. cruzi Dm28c amastigotes. As to the kind of experiment: Beta-galactosidase assay, amastigotes in Vero cells. Conditions: for SI (A), CC50/IC50 amastigotes: CC50 Vero cells / IC50; for IC50: Dm28c strain expressing β-galactosidase, 48 h postinfection of Vero cells, read-out: IC50 ± SD Amastigotes. It counts as cell-based, Trypanosoma cruzi. As to the method:
as §2

T1 sequence (Q4DXV1 entry or part of it): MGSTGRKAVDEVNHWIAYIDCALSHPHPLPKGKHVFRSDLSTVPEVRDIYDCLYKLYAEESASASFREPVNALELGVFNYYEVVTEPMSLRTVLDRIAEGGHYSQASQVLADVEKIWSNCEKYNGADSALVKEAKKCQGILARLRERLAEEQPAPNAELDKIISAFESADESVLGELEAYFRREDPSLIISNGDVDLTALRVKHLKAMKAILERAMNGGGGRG

With `COc1cc(/C=N/NC(=O)c2cccs2)ccc1O` [A1B4, (E)-N′-(4-hydroxy-3-methoxybenzylidene)thiophene-2-carbohydrazide], the IC50 in [1] (Dm28c strain expressing β-galactosidase, read-out: IC50 ± SD Amastigotes) is 13.1 ± 1.43 µM; in data set [2] (Dm28c strain expressing β-galactosidase, read-out: IC50 ± SD Tripomastigotes), 17.8 ± 2.13 µM; in [6] (Dm28c strain expressing β-galactosidase, read-out: IC50 ± SD Epimastigotes) it was 23 ± 2.04 µM; at TcBDF3 [7], 2.4 ± 0.3 µM. Also, the “SI (A), CC50/IC50 amastigotes” value in data set [1] is 20.5. Besides, in the data set on Vero cells, the CC50 is 269 ± 4.28 µM. Also, the “SI (T), CC50/IC50 trypomastigotes” value in [2] is recorded as 15. The “Binding (fluorescence quenching)” value in data set [3] is listed as “did not bind”; in [4], “did not bind”; in data set [5], “binds”. The “SI (E), CC50/IC50 epimastigotes” value in [6] is 11.7. Also, the Kd on TcBDF3 [8] was 1.7 ± 0.2 µM.

`COc1cc(-c2nnc(-c3cccs3)o2)ccc1O` [A1B4c, 2-methoxy-4-(5-(thiophen-2-yl)-1,3,4-oxadiazol-2-yl)phenol] showed a melting point of 224 °C. Besides, in [9], the “SI (E), CC50/IC50 epimastigotes” value came out at 11 and the IC50 amounted to 8.13 ± 0.87 µM. Further, in data set [9] (Trypanosoma cruzi), the IC50 was below 10 µM. The CC50 in data set [10] came out at 90.8 ± 3.54 µM. Also, on TcBDF3 [11], the Kd was determined as 4 ± 0.3 µM. The IC50 at TcBDF3 [7] amounted to 8.4 ± 0.5 µM. Further, in [12], the “SI (T), CC50/IC50 trypomastigotes” value turned out to be 54.4. Besides, in [13], the “SI (A), CC50/IC50 amastigotes” value is 13 and the IC50 is 6.9 ± 0.67 µM. Besides, the IC50 in data set [13] (Trypanosoma cruzi, Vero, 48 h) was below 10 µM.

As to `O=C(N/N=C/c1ccc(CO)o1)c1cccs1` [A5B4, (E/Z)-N′-((5-(hydroxymethyl)furan-2-yl)methylene) thiophene-2-carbohydrazide], the Kd on TcBDF3 [11] came to 136 ± 2.4 µM.

As for `OCc1ccc(-c2nnc(-c3cccs3)o2)o1` [A5B4c, (5-(5-(thiophene-2-yl)-1,3,4-oxadiazol-2-yl)furan-2-yl)methanol], the “SI (E), CC50/IC50 epimastigotes” value in [9] is on record as 21.3. Further, the IC50 in [9] (Trypanosoma cruzi) amounted to 14.8 ± 1.38 µM; at TcBDF3 [7] it was 10.5 ± 0.9 µM; in data set [12] (Trypanosoma cruzi, Dm28c strain expressing β-galactosidase, read-out: IC50 ± SD Tripomastigotes), 13.4 ± 1.25 µM; in data set [13] (Trypanosoma cruzi, Vero, 48 h), 8.49 ± 1.63 µM. Besides, the CC50 in data set [10] turned out to be 316 ± 4.35 µM. Further, the Kd on TcBDF3 [11] was 4.8 ± 0.2 µM. Also, the “SI (T), CC50/IC50 trypomastigotes” value in data set [12] amounted to 23.5. The “SI (A), CC50/IC50 amastigotes” value in data set [13] worked out at 37.
